These results are taken from patent US8865705B2, “Benzimidazole respiratory syncytial virus inhibitors” (Janssen R&D Ireland, priority 2010, dated 2014).

Like-named read-outs stand apart in the source and are kept apart here.

For the series, the system named is rgRSV224 virus. In words: microbe, parasite or virus in culture. The settings on record: for EC50: read-out: WT activity EC50; for SI CC50/EC50: selectivity index, CC50 (HeLa cytotoxicity) over EC50 (rgRSV224). The class given is cell-based, respiratory syncytial virus (RSV). How it is done:
Black 96-well clear-bottom microtiter plates (Corning, Amsterdam, The Netherlands) were filled in duplicate using a customized robot system with serial 4-fold dilutions of compound in a final volume of 50 μl culture medium [RPMI medium without phenol red, 10% FBS, 0.04% gentamycin (50 mg/mL) and 0.5% DMSO]. Then, 100 μl of a HeLa cell suspension (5×10^4 cells/mL) in culture medium was added to each well followed by the addition of 50 μl rgRSV224 (MOI=0.02) virus in culture medium using a multidrop dispenser (Thermo Scientific, Erembodegem, Belgium). rgRSV224 virus is an engineered virus that includes an additional GFP gene (Hallak et al, 2000) and was in-licensed from the NIH (Bethesda, Md., USA). Medium, virus- and mock-infected controls were included in each test. Cells were incubated at 37° C. in a 5% CO2 atmosphere. Three days post-virus exposure, viral replication was quantified by measuring GFP expression in the cells by a MSM laser microscope (Tibotec, Beerse, Belgium). […] In parallel, compounds were incubated for three days in a set of white 96-well microtitier plates (Corning) and the cytotoxicity of compounds in HeLa cells was determined by measuring the ATP content of the cells using the ATPlite kit (PerkinElmer, Zaventem, Belgium) according to the manufacturer's instructions.

Where [1] appears, read: Table 2, rgRSV224 in HeLa cells, GFP expression three days post-virus exposure.
Where [2] appears, read: human respiratory syncytial virus, HeLa, 72 h.

For orientation: EC50 means the concentration that produces a half-maximal response. For the compound `CC(C)CCn1c(Cn2c(=O)n(C3CC3)c3ccc(F)cc32)nc2cc(Cl)ccc21` [P28], the concentration giving a half-maximal response (EC50) under setting [1] was 2.32 nM. The “SI CC50/EC50” value (Table 2) is listed as 14563.

On to `O=c1n(Cc2nc3cc(Cl)ccc3n2CCCCF)c2cnccc2n1C1CC1` [P31], for which, under setting [1], the EC50 was determined as 0.19 nM. Besides, where the note is “Table 2”, the “SI CC50/EC50” value was more than 267110.

For the compound `CC(C)CCn1c(Cn2c(=O)n(C3CC3)c3ccc(F)cc32)nc2cc(Br)ccc21` [P32], under setting [1], the EC50 amounted to 2.53 nM. Moreover, the “SI CC50/EC50” value (Table 2) worked out at 25508.

Take `CC(C)(C)OC(=O)Cn1c(=O)n(Cc2nc3cc(Cl)ccc3n2CCCCF)c2cnccc21` [P33, tert-butyl (3-{[5-chloro-1-(4-fluorobutyl)-1H-benzimidazol-2-yl]methyl}-2-oxo-2,3-dihydro-1H-imidazo[4,5-c]pyridin-1-yl)acetate]: the “SI CC50/EC50” value (Table 2) was more than 49120. The EC50 under setting [2] stood at 1.9 nM.

Turning to `CS(=O)(=O)n1c(=O)n(Cc2nc3cc(Cl)ccc3n2CCCCF)c2cnccc21` [P34, 3-((5-chloro-1-(4-fluorobutyl)-1H-benzo[d]imidazol-2-yl)methyl)-1-(methylsulfonyl)-1H-imidazo[4,5-c]pyridin-2(3H)-one], where the note is “Table 2”, the “SI CC50/EC50” value is listed as >1 048 580. Moreover, the half-maximal effective concentration (EC50) under setting [2] worked out at 0.09 nM.

As to `CC(C)CCn1c(Cn2c(=O)n(C3CC3)c3ccccc32)nc2cc(Cl)ccc21` [P35], the 50% effective concentration (EC50) under setting [1] came to 2.63 nM. Moreover, where the note is “Table 2”, the “SI CC50/EC50” value was 33466.

As for `O=C(CCCn1c(Cn2c(=O)n(C3CC3)c3ccncc32)nc2cc(Br)ccc21)NCCS(=O)(=O)n1ccnc1` [P38], the EC50 under setting [1] stood at 0.22 nM. Moreover, under “Table 2”, the “SI CC50/EC50” value is more than 445390.

As for `O=c1n(Cc2nc3cc(Cl)ccc3n2CCCCF)c2cnccc2n1CC(F)F` [P40], the EC50 under setting [1] was 0.048 nM. The “SI CC50/EC50” value (Table 2) is given as 2000000.

With `O=c1n(Cc2ccc(F)cc2)c2ccncc2n1Cc1nc2cc(Cl)ccc2n1CCCCF` [P41], under setting [1], the EC50 was determined as 0.16 nM. Further, the “SI CC50/EC50” value (Table 2) was 503466.

As to `O=c1n(Cc2nc3cc(Cl)ccc3n2CCCNc2ncccn2)c2cnccc2n1C1CC1` [P44], the EC50 under setting [1] was 0.3 nM. For the same compound, the “SI CC50/EC50” value (Table 2) stood at 302162.

As for `O=C(O)CCCn1c(Cn2c(=O)n(C3CC3)c3ccncc32)nc2cc(Cl)ccc21` [P45, 4-(5-chloro-2-((1-cyclopropyl-2-oxo-1H-imidazo[4,5-c]pyridin-3(2H)-yl)methyl)-1H-benzo[d]imidazol-1-yl)butanoic acid], the “SI CC50/EC50” value (Table 2) is recorded as “D. >19412”. Also, the 50% effective concentration (EC50) under setting [2] stood at 5.15 nM.

As for `O=C1c2ccccc2C(=O)N1CCCCn1c(Cn2c(=O)n(C3CC3)c3ccncc32)nc2cc(Cl)ccc21` [P46], the 50% effective concentration (EC50) under setting [1] is 0.57 nM. Also, the “SI CC50/EC50” value (Table 2) was more than 44185.

`O=c1n(Cc2nc3cc(Cl)ccc3n2CCCCc2ccccn2)c2cnccc2n1C1CC1` [P47]: the EC50 under setting [1] is 0.76 nM. Besides, the “SI CC50/EC50” value (Table 2) is 84254.

Regarding `O=C(CCCn1c(Cn2c(=O)n(C3CC3)c3ccncc32)nc2cc(Br)ccc21)N1CCOCC1` [P48, 3-((5-bromo-1-(4-morpholino-4-oxobutyl)-1H-benzo[d]imidazol-2-yl)-methyl)-1-cyclopropyl-1H-imidazo[4,5-c]pyridin-2(3H)-one], for the setting “Table 2”, the “SI CC50/EC50” value was more than 102584. Moreover, under setting [2], the EC50 was 0.97 nM.

As to `O=C(CCCn1c(Cn2c(=O)n(C3CC3)c3ccncc32)nc2cc(Cl)ccc21)NS(=O)(=O)C1CC1` [P49, 4-(5-chloro-2-((1-cyclopropyl-2-oxo-1H-imidazo[4,5-c]pyridin-3 (2H)-yl)methyl)-1H-benzo[d]imidazol-1-yl)-N-(cyclopropylsulfonyl)butanamide], under “Table 2”, the “SI CC50/EC50” value is recorded as more than 55412. The EC50 under setting [2] was found to be 1.8 nM.

As for `O=c1n(Cc2nc3cc(Cl)ccc3n2CCCc2ccccc2)c2cnccc2n1C1CC1` [P50], under setting [1], the EC50 is 0.23 nM. In addition, the “SI CC50/EC50” value (Table 2) is given as 93799.
